# “And” between values parts separate entries of the source, which are not always exact repeats. Identical values can stand only once. Numbered stars: 1 amine (or outer) side, 2 acyl side, 3 side chain; on linkers, the order of the positions; unused ones are H or OH. Bridge positions count the residues as written; N and C are the ends. Square brackets hold non-standard residues; d marks the D form. Peptide text beside a SMILES is read from it. I, II: the chains in the order shown. Actinocin(9to1) = Cc1c2oc3c(C)ccc(C(=O)[*:1])c3nc-2c(C(=O)[*:2])c(N)c1=O; NMeV = CN[C@H](C(=O)O)C(C)C; Sar = CNCC(=O)O
# Experiments:
# [1] = system: SJSA-1 xenograft; test: SJSA-1 Bone Osteosarcoma subcutaneous xenograft model
# [2] = system: SJSA-1 cells; test: MTT proliferation assay, SJSA-1; assay type: cell-based, human
# [3] = system: SJSA-1 xenograft; conditions: mouse, in vivo
# [4] = molecular target: T1, TNF-α (Homo sapiens, UniProt P01375); test: Inhibition of TNF-α cytotoxicity in L929 fibroblast cells (MTS); assay type: cell-based, mouse; conditions: Assay 2, Actinomycin D only (no TNFα), sample replicates
# T1 construct: purchased Sigma-Aldrich
# [5] = SBT-100 5.0 mg/kg BID 14 days IP, Doxorubicin 7.0 mg/kg days 1, 8 and 14 IP
# [6] = study day 9 post implant, IP, SBT-100 5.0 mg/kg BIDx14 and/or Doxorubicin 7.0 mg/kg days 1, 8, 14
# [7] = study day 13 post implant, IP, SBT-100 5.0 mg/kg BIDx14 and/or Doxorubicin 7.0 mg/kg days 1, 8, 14
# [8] = study day 16 post implant, IP, SBT-100 5.0 mg/kg BIDx14 and/or Doxorubicin 7.0 mg/kg days 1, 8, 14
# [9] = study day 20 post implant, IP, SBT-100 5.0 mg/kg BIDx14 and/or Doxorubicin 7.0 mg/kg days 1, 8, 14
# [10] = study day 21 post implant, IP, SBT-100 5.0 mg/kg BIDx14 and/or Doxorubicin 7.0 mg/kg days 1, 8, 14
# [11] = study day 23 post implant, IP, SBT-100 5.0 mg/kg BIDx14 and/or Doxorubicin 7.0 mg/kg days 1, 8, 14
# [12] = study day 27 post implant, IP, SBT-100 5.0 mg/kg BIDx14 and/or Doxorubicin 7.0 mg/kg days 1, 8, 14
# T1 sequence (P01375 77-233 limits assumed): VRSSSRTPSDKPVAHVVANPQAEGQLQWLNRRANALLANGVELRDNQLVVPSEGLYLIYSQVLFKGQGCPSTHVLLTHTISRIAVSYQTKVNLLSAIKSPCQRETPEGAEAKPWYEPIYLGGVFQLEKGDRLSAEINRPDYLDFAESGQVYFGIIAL
smiles,measurement,setting,value
"COc1cccc2c1C(=O)c1c(O)c3c(c(O)c1C2=O)C[C@@](O)(C(=O)CO)C[C@@H]3O[C@H]1C[C@H](N)[C@H](O)[C@H](C)O1 [Doxorubicin, reference compound]",% T/C,[1]; [5],17.91%
same,mean tumor growth inhibition at the end of the study,[1]; [5],84.71%
same,mean tumor size (±S.E.) at termination,[1]; [5],215.84±52.32
same,mean tumor size (±SE) at the last day of dosing,[1]; [5],118.18±11.13
same,tumor doubling time,[1]; control 8.22,13.32
same,% Inh Mean,[1]; [6],58.36%
same,% Inh Med,[1]; [6],32.94%
same,Mean Abs (tumor measurement),[1]; [6],16.52 mm^3
same,"Tumor Measurements, single animals",[1]; [6],23.19 mm^3 and 14.32 mm^3 and 16.69 mm^3 and 0.00 mm^3 (2×) and 46.20 mm^3
same,% Inh Mean,[1]; [7],3.16%
same,% Inh Med,[1]; [7],−23.18%
same,% T/C,[1]; [7],107.14%
same,Mean Abs (tumor measurement),[1]; [7],76.72 mm^3
same,Median Abs (tumor measurement),[1]; [7],72.93 mm^3
same,"Tumor Measurements, single animals",[1]; [7],48.43 mm^3 and 20.77 mm^3 and 132.27 mm^3 and 104.16 mm^3 and 25.81 mm^3 and 132.66 mm^3 and 72.93 mm^3
same,% Inh Mean,[1]; [8],55.02%
same,% Inh Med,[1]; [8],55.11%
same,% T/C,[1]; [8],51.96%
same,Mean Abs (tumor measurement),[1]; [8],78.09 mm^3
same,Median Abs (tumor measurement),[1]; [8],73.50 mm^3
same,"Tumor Measurements, single animals",[1]; [8],102.31 mm^3 and 37.33 mm^3 and 105.65 mm^3 and 118.75 mm^3 and 57.55 mm^3 and 51.55 mm^3 and 73.50 mm^3
same,% Inh Mean,[1]; [9],74.31%
same,% Inh Med,[1]; [9],71.58%
same,% T/C,[1]; [9],30.35%
same,Mean Abs (tumor measurement),[1]; [9],79.33 mm^3
same,Median Abs (tumor measurement),[1]; [9],72.16 mm^3
same,"Tumor Measurements, single animals",[1]; [9],61.44 mm^3 and 68.71 mm^3 and 114.42 mm^3 and 93.72 mm^3 and 75.00 mm^3 and 69.85 mm^3 and 72.16 mm^3
same,% Inh Mean,[1]; [10],70.41%
same,% Inh Med,[1]; [10],61.77%
same,% T/C,[1]; [10],36.16%
same,Mean Abs (tumor measurement),[1]; [10],118.18 mm^3
same,"Tumor Measurements, single animals",[1]; [10],85.16 mm^3 and 115.50 mm^3 and 133.21 mm^3 and 119.94 mm^3 and 160.89 mm^3 and 94.40 mm^3
same,% Inh Mean,[1]; [11],72.79%
same,% Inh Med,[1]; [11],71.86%
same,% T/C,[1]; [11],30.43%
same,Mean Abs (tumor measurement),[1]; [11],141.94 mm^3
same,Median Abs (tumor measurement),[1]; [11],129.81 mm^3
same,"Tumor Measurements, single animals",[1]; [11],105.84 mm^3 and 142.33 mm^3 and 217.29 mm^3 and 151.94 mm^3 and 116.95 mm^3 and 117.30 mm^3
same,% Inh Mean,[1]; [12],84.71%
same,% Inh Med,[1]; [12],81.05%
same,% T/C,[1]; [12],17.91%
same,Mean Abs (tumor measurement),[1]; [12],215.84 mm^3
same,Median Abs (tumor measurement),[1]; [12],215.84 mm^3
same,"Tumor Measurements, single animals",[1]; [12],163.53 mm^3 and 268.16 mm^3
same,inhibition of SJSA-1 cells,"[2]; 72 hours, SBT-100 at 50 and 100 μg/ml, Doxorubicin at all dose levels tested",significant dose-dependent inhibition
same,inhibition at 0.0313 µM,"[2]; Homo sapiens, SJSA-1, 72 h",28%
same,inhibition at 0.0625 µM,"[2]; Homo sapiens, SJSA-1, 72 h",29%
same,inhibition at 0.313 µM,"[2]; Homo sapiens, SJSA-1, 72 h",31%
same,inhibition at 0.5 µM,"[2]; Homo sapiens, SJSA-1, 72 h",36%
same,inhibition at 0.625 µM,"[2]; Homo sapiens, SJSA-1, 72 h",29%
same,inhibition at 1 µM,"[2]; Homo sapiens, SJSA-1, 72 h",49%
same,inhibition at 5 µM,"[2]; Homo sapiens, SJSA-1, 72 h",52%
same,inhibition at 10 µM,"[2]; Homo sapiens, SJSA-1, 72 h",45%
same,Mean Abs (±SD),"[2]; Table 72 (experiment 5a), Doxorubicin 0.0313 μM alone, 72 hours",0.281 ± 0.031
same,Mean Abs (±SD),"[2]; Table 72 (experiment 5a), Doxorubicin 0.0625 μM alone, 72 hours",0.277 ± 0.035
same,Mean Abs (±SD),"[2]; Table 72 (experiment 5a), Doxorubicin 0.5 μM alone, 72 hours",0.248 ± 0.038
same,Mean Abs (±SD),"[2]; Table 72 (experiment 5a), Doxorubicin 1 μM alone, 72 hours",0.197 ± 0.012
same,Mean Abs (±SD),"[2]; Table 73 (Experiment 2, 5b), Doxorubicin 0.313 μM alone, 72 hours",0.519 ± 0.004
same,Mean Abs (±SD),"[2]; Table 73 (Experiment 2, 5b), Doxorubicin 0.625 μM alone, 72 hours",0.530 ± 0.024
same,Mean Abs (±SD),"[2]; Table 73 (Experiment 2, 5b), Doxorubicin 5.00 μM alone, 72 hours",0.358 ± 0.003
same,Mean Abs (±SD),"[2]; Table 73 (Experiment 2, 5b), Doxorubicin 10.0 μM alone, 72 hours",0.414 ± 0.007
same,number surviving at the end of the study,"[3]; Hsd: Athymic Nude-Fox1nu, 14 days",2
same,Are the survival curves sig different?,[3],Yes
"Cc1c2oc3c(C)ccc(C(=O)N[C@@H]4C(=O)N[C@H](C(C)C)C(=O)N5CCC[C@H]5C(=O)N(C)CC(=O)N(C)[C@@H](C(C)C)C(=O)O[C@@H]4C)c3nc-2c(C(=O)N[C@@H]2C(=O)N[C@H](C(C)C)C(=O)N3CCC[C@H]3C(=O)N(C)CC(=O)N(C)[C@@H](C(C)C)C(=O)O[C@@H]2C)c(N)c1=O [Actinomycin D] (I: T[dV]P[Sar][NMeV] / II: T[dV]P[Sar][NMeV]; ester I:1-I:C, II:1-II:C; linker I:N-II:N via Actinocin(9to1))",% Toxicity,[4],0%

# — patent US11370847B2, “Single domain antibodies directed against intracellular antigens” (Singh Biotechnology, LLC, priority 2014, dated 2022)
